Laboratory results reported in US20230293735A1, “OXINE-CONTAINING CELL RADIOLABELLING AGENTS” (priority 2020, published 2023).

Legend:
eosinophils = settings: ref. [31]; cited from earlier work
[1] = Activity recovery from vial (gamma-counting of aliquots); type: physicochemical; settings: for added ^89Zr activity recoverable: formulation with 5% EtOH
Experimental: FIG. 9. Recovery of ^89Zr-oxine complexes from the reaction vial over time. The figure compares formulations containing 8-hydroxyquinoline, HEPES and NaOH only (dots), and additional 5% EtOH (squares) or 1 mg/mL polysorbate 80 (diamonds). ^89Zr-oxalate was added to 100 µL of the formulation of the invention in a glass vial and left at room temperature for up to 1 week. 10 µL aliquots were removed from the glass vial immediately after addition (0 min) and after 15 min, 30 min, 1, 2, 24, 48, 72 and 168 h, then gamma-counted at the end of the experiment. The recovered activity is expressed as the activity in the aliquot at the indicated time as a percentage of the activity sampled immediately after addition of ^89Zr to the-formulation of the invention. Mean±SD, N=3.
FIG. 10. Recovery of ^89Zr-oxine complexes from the reaction vial over time as a function of the amount of polysorbate 80. […] 10 µL aliquots were removed from the glass vial immediately after addition (0 min) and after 15 min, 30 min, 1, 2, 24, 48, 72 and 168 h, then gamma-counted at the end of the experiment. The recovered activity is expressed as the activity in the aliquot at the indicated time as a percentage of the activity sampled immediately after addition of ^89Zr to the formulation of the invention. […]
The stability of the compositions described herein can be assessed, for example, in terms of their recovered activity. The recovered activity is expressed as the percentage of activity (i.e. radioactivity, as assessed by gamma-counting) in a sample at the time of measurement, relative to the activity sampled immediately after addition of the radioactive metal containing solution to the oxine formulation described herein. […]
Activity recovery from vial: ^89Zr was added to 100 µL of the formulation. […] The aliquots were gamma-counted on day 7 after addition of ^89Zr. The percentage of activity recovered from the vial was determined as the counts in each sample divided by the counts in the reference sample.

WBC = assay: Viability of radiolabelled cells, Trypan Blue dye exclusion; type: cell-based, human
Experimental: FIG. 16. WBC radiolabelling with ^89Zr-oxine and ^111In-oxine. Percentage of viable ^89Zr- and ^111n-labelled WBC after 4 h and 24 h, measured using the Trypan blue assay. Mean ± SD of n=6 per group, Student’s two-tailed paired t-test. ns: not significant (p≥0.05).
Viability was assessed by microscopy using the Trypan Blue dye exclusion method. Cell viability after radiolabelling with ^89Zr-oxine was 99.4±0.3% immediately after labelling, 97.0±2.3% after 4 h and 92.6±4.8% after 24 h (FIG. 16).

WBCs = assay: In vitro chemotaxis assay of radiolabelled WBC towards fMLP; type: cell-based, human; settings: vs ^111In-oxine and unlabelled control cells
Experimental: FIG. 17. Chemotaxis of radiolabelled WBC. Cells were incubated with ^89Zr-oxine, ^111In-oxine, or vehicle only. The chemotaxis index is the number of cells migrating towards 10 nM fMLP divided by the number of cells migrating towards vehicle, averaged from triplicates for each sample. Each point represents one donor. Bars represent the mean ± SD of n = 9, 10 and 10 individual samples. p≥0.05.
The functionality of WBCs radiolabelled as in Example 8 was tested using an in vitro chemotaxis assay, where the number of WBCs migrating in response to the neutrophil chemoattractant N-formyl-Met-Leu-Phe (fMLP) was measured.
After radiolabelling, red blood cells (RBCs) were removed from the cell pellets hypotonic lysis. Cells were resuspended in 4.5 mL cold H2O for 30 s, after which isotonicity was restored by addition of 0.5 mL 10x PBS. Lysed RBC were removed by centrifugation and the remaining WBC were resuspended in assay medium at 3.5×10^6 cells/mL. […] The top wells were emptied, the plate was centrifuged at 150 g for 5 min to detach the cells from the membrane and the cells in the bottom wells were counted using a haemocytometer. The chemotaxis index (CI) was calculated by dividing the number of WBC in the wells containing fMLP by the number of WBC in the wells containing medium only.

WBC populations = assay: Relative activity per cell in FACS-sorted WBC populations, gamma-counted; type: cell-based, human; settings: flow-assisted cell sorting
Experimental: FIG. 18. Relative activity per cell of ^89Zr in WBC populations after labelling of mixed WBC with ^89Zr-oxine. Radiolabelled WBC were sorted by FACS and gamma-counted. Each point represents cells from an individual donor.
To determine whether certain subtypes of WBC had preferential uptake of ^89Zr-oxine, radiolabelled WBC were stained with fluorescent monoclonal antibodies, automatically sorted and gamma-counted. ^89Zr-radiolabelled WBC were stained (15 min at 4° C.) with a combination of CD45-APC-Vio770 (#130-110-773), CD3-PE (REA613, #130-113-701), CD14-APC (#130-110-578), CD19-PE-Vio770 (REA675, #130-114-173) and CD16-FITC (REA423, #130-113-954) antibodies to sort samples into neutrophils, eosinophils, monocytes, T cells and B cells, or CD45-APC-Vio770, […] (REA175, #130-117-800) and CD41a-PE (REA386, #130-121-429) to sort red blood cells and platelets. Compensation settings were adjusted using beads (anti-REA MACS® Comp, #130-104-693). Samples were analysed and sorted on a FACSMelody instrument (BD Biosciences) equipped with blue (488 nm), yellow-green ([…]) and red (633 nm) lasers. For each cell type, a fixed number of events was collected, and the fractions were gamma-counted to determine the amount of activity per cell.

Extracellular vesicles = assay: Radiolabelling efficiency of extracellular vesicles; settings: EVs from B16-F10.GFP, MDA-MB-231.CD63-GFP, PANC1, 4T1 and 2D/3D MSC cultures
Experimental: FIG. 23. Use of the kit formulation to radiolabel extracellular vesicles (EVs) for imaging purposes.
Extracellular vesicles are isolated by any suitable method (e.g. by density gradient centrifugation). Extracellular vesicles (e.g. 1×10^10 to 1×10^11 vesicles) in 160 µL PBS were incubated with 20 µL ^89Zr-oxine or unchelated ^89Zr for 20 min at 37° C. with frequent shaking, followed by addition of 100 µL 1% deferoxamine in PBS to trap any unbound ^89Zr. Radiolabelled EVs were purified from unchelated radiotracer by size-exclusion chromatography (SEC) using cross-linked agarose resin (e.g. Sepharose CL-2B, GE Healthcare) in plastic columns. The reaction mixture was loaded onto the column followed by 200 µL PBS and eluted with 700-800 µL PBS. Radioactivity of the eluate and the column was measured using gamma counting to calculate labelling efficiency. The labelling efficiency of EVs obtained from B16-F10.GFP, MDA-MB-231.CD63-GFP, PANC1 and 4T1 cell lines and from 2D and 3D cultures of mesenchymal stem cells (MSC) B with ^89Zr-oxine ranged from 5.4 ± 3.2% for 2D-culture derived MSC-EVs to 27.6 ± 6.5% for 4T1 EVs (FIG. 23).

Human WBCs = assay: Radiolabel retention in radiolabelled WBC in autologous cell free plasma; type: cell-based; settings: p>0.05, n=10
Experimental: Human WBCs from 10 healthy donors were radiolabelled with ^89Zr-oxine and ^111In-oxine as described in Example 8 and an intra-individual comparison of labelling with ^89Zr-oxine and ^111In-oxine was performed. Labelling efficiency was determined as described in Example 7. For radiolabel retention studies, radiolabelled WBC were suspended in autologous CFP (cell free plasma), in triplicate in a 24-well plate and incubated at 37° C. Cells were collected after 4 h or 24 h, diluted with PBS, centrifuged at 200 g for 10 min, and supernatants and pellets were measured in a dose calibrator to determine retention using the same formula as for labelling efficiency. The labelling efficiency of WBCs with ^89Zr-oxine was 48.7±6.3%, vs 89.1±9.5 (p<0.0001, n=10) for ^111In-oxine (FIG. 14). Cellular retention of ^89Zr was 91.4±1.4% after 4 h incubation in autologous CFP and 86.6±2.9% after 24 h (FIG. 15). […] The labelling of WBC with ^89Zr-oxine was reliable, consistently achieving 45-50% labelling efficiency with 160-480 million cells.

SMILES: C/C(=N\[O-])[C@@H](C)[N-]CC(C)(C)C[N-][C@H](C)/C(C)=N/O.[O]=[99Tc+3] (racemic) [^99mTc-HMPAO]
- preferential accumulation in leucocyte subtype (eosinophils): accumulated preferentially in eosinophils

SMILES: c1cnc2c([O][89Zr]([O]c3cccc4cccnc34)([O]c3cccc4cccnc34)[O]c3cccc4cccnc34)cccc2c1 [^89Zr-oxine]
- added activity recoverable from the vial ([1]; 1 M HEPES buffer (pH 7.9), no surfactant or organic solvent, glass vessel, 15 min after addition of ^89Zr): 46%
- added ^89Zr activity recoverable ([1]; after 1 h): 46%
- added ^89Zr activity recoverable ([1]; after 24 h): less than 6%
- cell viability after radiolabelling (WBC; after 4 h): 97.0±2.3%
- cell viability after radiolabelling (WBC; after 24 h): 92.6±4.8%
- cell viability after radiolabelling (WBC; immediately after labelling): 99.4±0.3%
- chemotactic properties of labelled WBC (WBCs): retained their chemotactic properties
- preferential uptake by leukocyte populations (WBC populations): no preferential uptake by any specific leukocyte population
- uptake in RBCs and platelets (WBC populations): significant uptake
- labelling efficiency of EVs compared to unchelated ^89Zr (Extracellular vesicles): higher labelling efficiency

SMILES: c1cnc2c([O][111In]([O]c3cccc4cccnc34)[O]c3cccc4cccnc34)cccc2c1 [^111In-oxine, reference compound]
- radiolabelling agent retention compared with ^89Zr-oxine (Human WBCs): no significant differences
- viability compared with ^89Zr-oxine (WBC; p>0.05, n=6-10): no significant differences
